Assay [1] relates to hepatic mRNA of adult male SHMs. As to the kind of experiment: SHM cDNA macroarray (30 genes): hepatic gene expression profiles of exposed fish. Conditions: adult male SHM liver, aqueous E2 65.14 ng/L 5 d, vs untreated control. It counts as in vivo, sheepshead minnow (SHM).
For assay [2] the test system is unchanged. As to the kind of experiment: SHM estrogen responsive macroarray (54 cDNA clones), E2 exposure. It counts as in vivo, sheepshead minnow (SHM). Particulars: adult male SHM liver; aqueous 100 ng/L E2 in TEG, 5 days; vs TEG control. The procedure: Total hepatic mRNA was extracted from 5 adult male SHMs treated by aqueous exposure to 100 ng/L of E2 dissolved in triethylene glycol (TEG) for 5 days. Minipreps of 54 cDNA clones derived from DD analysis were PCR amplified using primers specific to the M13 sequence of the cloning vector (pGEMT-Easy, Promega, Madison,Wis.). After the PCR reactions the products were purified in spin-columns (Qiagen, Chatsworth, Calif.) and then concentrated in a speed-vac. The cDNA samples were denatured with NaOH, heated to 65° C. for 10 min, and then immediately quenched on ice. 20×SSC (3M NaCl, 0.3M sodium citrate, pH 7.0) that contained 0.01 mM bromophenol blue was then added to the samples to yield a final concentration of 0.3M NaOH, 6×SSC, and 100 ng/μL cDNA template. The samples were then robotically spotted (Biomek 2000, Beckman Coulter, Fullerton, Calif.) in duplicate onto neutral nylon membranes (Fisher Scientific, Pittsburgh, Pa.) using 100 nL pins. The membranes were UV cross-linked and then stored under vacuum at room temperature until hybridized. Various controls, which provided information about the cDNA labeling efficiency, blocking, and non-specific binding of the arrays, were also spotted onto the membranes. These controls included: 3 Arabidopsis thaliana cDNA clones, Cot-1 repetitive sequences, poly A sequence (SpotReport 3, Stratagene, La Jolla, Calif.), and a M13 sequence (vector but no cDNA insert). Labeling of RNA probes and hybridization of blots was performed as described in Example 1.
FIGS. 4A and 4B contain blots of control (TEG-treated) and E2-treated fish, respectively. FIG. 4C is a plot of the mean intensity values. Genes on the macroarray were designated as constitutive genes if their intensity values fell within the range of the highest (1.27) and lowest (0.83) value of the 17 cDNA clones that were used to normalize the data.

The test system of assay [3] is hepatic RNA of LMB. As to the kind of experiment: LMB gene array (132 genes): hepatic gene expression after IP injection. It counts as in vivo, largemouth bass (LMB). Particulars: male LMB liver, two-fold cutoff vs control.
Assay [4] relates to estrogen receptors alpha, beta, and gamma, and Vtg 1 mRNA. As to the kind of experiment: Real-time PCR of ER and Vtg 1 mRNA in LMB liver. It counts as in vivo, largemouth bass (LMB). Conditions: male LMB liver, 48 h after IP 4-NP 50 mg/kg + ICI 182,780 1.0 mg/kg. From the text: Experimental Design and Sample Collection: Adult male LMB were purchased from American Sports Fish Hatchery (Montgomery, Ala.) and maintained in fiberglass tanks as previously described (Larkin et al., Comp. Biochem. Physiol. B. Biochem. Mol. Biol. 133:543-557, 2002; Larkin et al., Marine Environ. Res. 54:395-399, 2002; and Larkin et al., Comparative Biochemistry and Physiology 133:543-557, 2002). Array technology as a tool to monitor exposure of fish to xenoestrogens. Marine Environ. Res., 2002; Bowman et al., Mol. Cell. Endocrinol. 196:67-77, 2002). Each fish was injected IP with either 50 mg/kg 4-NP (Fluka, St. Louis, Mo. # 74430), the combination of 50 mg/kg 4-NP and 1.0 mg/kg ICI 182,780 (Tocris Cookson), or vehicle, which consisted of ethanol and DMSO (Sigma, St. Louis, Mo. #5879). Each dose was dissolved in 1 ml of ethanol and then diluted to the appropriate concentration with DMSO. The fish were euthanized by submersion in a water bath containing 50-100 ppm […] 48 hours post injection and sacrificed by a sharp blow to the head followed by cervical transaction. The livers were excised and immediately flash frozen in liquid nitrogen. The frozen tissues were stored at −80° C. until RNA was isolated.
RNA Isolation: Isolation of total RNA from liver tissue was performed with the RNA Stat-60 reagent (Tel-test). Briefly, 30 mg-50 mg of tissue stored in RNA later was homogenized in 0.9 mls STAT 60, choloroform was added, and the mixture was centrifuged at 12,000 g for 15 minutes at 4° C. The extraction process was repeated and the pooled RNA was added to 500 μl isopropanol and allowed to precipitate at −20° C. for at least one hour. Following centrifugation at 12,000 g for 50 minutes, the pellet was washed with 70% ethanol, air dried and resuspended in an appropriate volume (50 μl-120 μl of RNA secure. The samples were treated with RNA secure (Ambion, Austin Tex. #7010) to inactivate contaminating RNases. All isolated RNA was treated with DNase solution (Ambion, Austin, Tex. #1906) following the manufacture's protocol. For all RNA samples, the quantity and quality of total RNA was assessed by spectrophotometric readings at 260 nm and by electrophoresis through a 1% formaldahyde agarose gel stained with ethidium bromide.
Real-Time PCR: Real time PCR was performed using reagents and a 5700 thermocycler purchased from Applied Biosystems (ABI, Foster City, Calif.). The nucleotide sequences of the primers for the ER subtypes and Vtg 1 are as follows: 5′, […] (SEQ ID NO:563) AND 5′[…] (SEQ ID NO:564). Probes and primers for the ER subtypes and Vtg 1 are described in Bowman et al., Ecotoxicology 8:399-416, 1999; and Bowman et al., Mol. Cell Endocrinol. 196:67-77, 2002. Each real time PCR reaction consisted of 0.01-0.2 μg of reverse transcribed total RNA from liver tissue, 1× universal Taqman master mix (ABI, Foster City, Calif.), and primers and probes in a 25 μl reaction. […] Statistical differences between the treatments were determined by one way analysis of variance with Dunnets post-hoc analysis.
Measurement of ER and Vtg 1 mRNA by real-time PCR: Real-time PCR is a sensitive assay that can be used to quantitate expression levels of genes. Using this technology, assays were designed to quantitate the expression of 4 genes, estrogen receptors alpha, beta, and gamma, and Vtg 1 in LMB following exposure to 4-NP and 4-NP/ICI 182,780. […]
(Quantitative PCR measures a nucleic acid by following its amplification.)

Assay [5] deals with LMB genes (ER alpha, ER gamma, StAR). Also noted: species or system largemouth bass (LMB). Particulars: Table II, test not stated.
Where [6] appears, read: EE2 109 ng/L 4 d, DES 100 ng/L 4 d, pNP 11.81 μg/L 5 d, MXC 5.59 μg/L 13 d, ES 590.3 ng/L.

For `C[C@]12CC[C@@H]3c4ccc(O)cc4CC[C@H]3[C@@H]1CC[C@@H]2O` [E2, estradiol], in assay [1] (setting [6]), the “ER α expression” value is recorded as “up-regulated (any cDNA clones in the macroarray experiments above a ˜1.66-fold induction were designated as up-regulated genes)” and the “Vtg α expression” value is given as “up-regulated (any cDNA clones in the macroarray experiments above a ˜1.66-fold induction were designated as up-regulated genes)”. In assay [1], the “Vtg β expression” value is listed as “up-regulated (any cDNA clones in the macroarray experiments above a ˜1.66-fold induction were designated as up-regulated genes)”, the “alpha-1-microglobulin/bikunin precursor protein expression” value is reported as “down-regulated (any cDNA clones that had a value below ˜0.42 were designated as down-regulated)”, the beta actin expression result is recorded as “down-regulated (any cDNA clones that had a value below ˜0.42 were designated as down-regulated)” and the “choriogenin 2 expression” value is recorded as “up-regulated (any cDNA clones in the macroarray experiments above a ˜1.66-fold induction were designated as up-regulated genes)”. Further, in assay [1], the “choriogenin 3 expression” value is recorded as “up-regulated (any cDNA clones in the macroarray experiments above a ˜1.66-fold induction were designated as up-regulated genes)”, the “coagulation factor XI expression” value is given as “up-regulated (any cDNA clones in the macroarray experiments above a ˜1.66-fold induction were designated as up-regulated genes)” and the transferrin expression entry is “down-regulated (any cDNA clones that had a value below ˜0.42 were designated as down-regulated)”. For the same compound, in assay [2], the “choriogenic protein (ZP2) expression” value is on record as “up-regulated (intensity value above ˜1.27 was designated an E2 up-regulated gene)”, the transferrin expression entry is on record as “down-regulated (a value below ˜0.83 was designated an E2 down-regulated gene)”, the “vitellogenin α expression” value is “up-regulated (intensity value above ˜1.27 was designated an E2 up-regulated gene)” and the “vitellogenin β expression” value is given as “up-regulated (intensity value above ˜1.27 was designated an E2 up-regulated gene)”. For the same compound, in assay [3] (48 h after single IP E2 2.5 mg/kg), the “clone 132-2 expression” value is listed as “up-regulated (only genes that exhibit a two-fold or greater change in expression were considered to be differentially regulated)”. Also, the “four Vtg genes expression” value in assay [3] (48 h after single IP dose: E2 2.5 mg/kg or 4-NP 50 mg/kg) is listed as “up-regulated (only genes that exhibit a two-fold or greater change in expression were considered to be differentially regulated)”.
Turning to `C[C@]12CC[C@@H]3c4ccc(O)cc4C[C@@H](CCCCCCCCC[S+]([O-])CCCC(F)(F)C(F)(F)F)[C@H]3[C@@H]1CC[C@@H]2O` (some centres unmarked) [ICI 182,780], the “repression of 4-NP induction of Vtg 1 mRNA by addition of ICI 182,780” value in assay [4] was “not repressed”.
On to `CC[C@H](CC[C@@H](C)[C@H]1CC[C@H]2[C@@H]3CC=C4C[C@@H](O)CC[C@]4(C)[C@H]3CC[C@]12C)C(C)C` [b-sitosterol], for which, in assay [5], the “LMB_STAR STAR PROTEIN differentially expressed by” value was “dn-reg b-”.

The values above are taken from patent US20040166509A1, “Detecting hormonally active compounds” (priority 2002, published 2004).
